“Also recorded” adds a separate entry of the source.
What was measured:
[1] = cited from earlier work; for formation of visible aggregates in the presence of HA (literature): in the presence of glycosaminoglycans such as HA
From the text: GA consists of a broad population of peptides (average MW 5–9 kDa) comprising four amino acids (AKEY). Lysine is the predominant amino acid at ~34% of the molar mass, which imbues a strong cationic character (pI ~10). […] Approximately 30% of GA remained aggregated after 3 days according to in vitro subcutaneous (SC) injection simulation experiments. […] GEMSP consists of a mixture of fatty acid linked poly-lysine (PLL), antioxidants-PLL, free radical scavengers-PLL, and amino acids-PLL.

[2] = Subcutaneous injection simulation (Scissor): aggregation and release; assay type: physicochemical; conditions: for formation of visible aggregates in HA: 1 ml of 20 mg/ml injected into 10 mg/ml HA (1.5–1.8 MDa), Scissor cartridge, visual observation
Description: The subcutaneous injection simulation was performed using the method previously described ([15]). 1 ml of 20 mg/ml K-PLP in 40 mg/ml mannitol solution was injected into Scissor cartridge containing 10 mg/ml 1.5–1.8 MDa hyaluronic acid (HA). Time points were collected over 3 days and concentration of K-PLP released into the chamber buffer was determined using a bicinchoninic acid assay (Micro BCA protein assay kit, Thermo Scientific, Waltham, MA) by constructing a calibration curve with K-PLP concentrations of 2, 5, 10, 20, 30, and 40 µg/ml. The concentration values were adjusted to account for K-PLP that was taken out during sampling and then converted to percentage of K-PLP released before plotted as a function of time.

[3] = tested on: EAE induced using PLP 139-151; test: In vivo efficacy study, EAE animal model; set-up: species or system SJL/J (H-2) mice
Description: In vivo efficacy of K-PLP was assessed using the EAE animal model induced in female 4-6-week old SJL/J (H-2) mice (20–25 g, Envigo, Indianapolis, IN). All protocols were approved through the University’s Institutional Animal Care and Use Committee, and all animals were housed in pathogen-free conditions. EAE induction and treatment schedule were based on methods previously described ([18]–[20]). […]. Additionally, on day 0 each mouse received a 100 μl intraperitoneal injection of pertussis toxin at 100 ng/ml. This administration of pertussis toxin was repeated on day 2. Beginning on day 7, disease severity was monitored daily through the use of a symptom scoring system as follows: 0, no clinical disease symptoms; 1, weakness or limpness of the tail; 2, weakness or partial paralysis of one or two hind limbs (paraparesis); 3, full paralysis of both hind limbs (paraplegia); 4, paraplegia plus weakness or paralysis of forelimbs; 5, moribund (euthanasia necessary). Mouse weight was also recorded daily throughout the study. In vivo treatment groups consisted of 6 mice per group. Treatments were administered in 100 μl SC injections formulated in 40 mg/ml mannitol. Injections were administered between the shoulder blades. Copaxone and K-PLP were administered at 4.5 mg/ml while 9-unit poly-lysine was administered at the molar equivalent to K-PLP injections, resulting in a concentration of 1.7 mg/ml. Treatment injections were performed on days 4, 7, and 10 following EAE induction. Mouse weights were recorded daily beginning on day 0 and clinical scores were recorded daily beginning on day 7. Statistical analysis was performed using two-way analysis of variance (ANOVA) on the clinical scores and weights, one-way ANOVA on the cumulative clinical scores, followed by Turkey comparison tests for all. Statistical significance for all analyses was set at p<0.05. All statistical analyses were performed using GraphPad Software (GraphPad Software Inc.).

footpads of mice = test: In vivo migration imaging: retention at the footpad injection site; conditions: 10 μl into the footpad, cy7-labeled mixed with unlabeled compound, 20 mg/ml (PLP molar equivalent), dye 25 μM; 1-4 h; near-IR imaging; one mouse per compound
Description: Herein, the labeled compounds will be referred to as cy7-GA, cy7-K-PLP, cy7-PEG and cy7-PLP.
Similar imaging method as previously described was used ([15]). Three female SJL/J mice (20-25 g, Envigo, Indianapolis, IN) were used for imaging, one each for K-PLP, PLP, and GA. Unlabeled K-PLP and unlabeled GA were mixed with cy7-K-PLP and cy7-GA, respectively, to a final concentration of 20 mg/ml with the amount of dye normalized to the equivalent of 25 μM of free cyanine 7 dye. Similarly, unlabeled PLP was mixed with cy7-PLP to a concentration that is molar equivalent to 20 mg/ml of K-PLP with the amount of dye normalized to the equivalent of 25 μM of free cyanine 7 dye. Each mouse was injected with 10 μl of their respective treatment at the center of the footpad every hour for 4 h in the following order: left forelimb at the 1-h time point, right forelimb at the 2-h time point, left hindlimb at the 3-h time point, and right hindlimb at the 4-h time point for K-PLP; right forelimb at the 1-h time point, left forelimb at the 2-h time point, right hindlimb at the 3-h time point, and left hindlimb at the 4-h time point for both GA and PLP. […]

[4] = Dynamic light scattering particle sizing; assay type: physicochemical
Description: Raman and dynamic light scattering were performed with a Malvern Helix (Malvern Instruments, Malvern, UK). 20 μl of K-PLP at a concentration of 10 mg/ml in 150 mM citrate-phosphate buffer at pH 6 was loaded into a custom steel cuvette with quartz windows. Raman scattering from a 785 nm laser was collected in a backscattering geometry. Samples were measured in triplicate, each replicate consisted of 10 acquisitions of 10 second exposure each. The Zetasizer Helix Analyze software (Malvern Instruments) was used to buffer subtract, normalize to the phenylalanine peak (1003 cm-1), then baseline spectra for analysis. Dynamic light scattering autocorrelation functions were measured with a 632 nm laser with light collected in a 173° angle backscattering geometry. Autocorrelation functions were fit using the method of cumulants.

Substance	formation of visible aggregates in the presence of HA (literature) [1]	formation of visible aggregates in HA [2]	disease progression compared to the control (mannitol) ([3]; 100 μl SC, days 4, 7 and 10, Copaxone 4.5 mg/ml, 9-unit poly-lysine 1.7 mg/ml, 6 mice per group)	remained aggregated after 3 days ([1]; in vitro subcutaneous injection simulation, 3 days)	fluorescence intensity at the footpads over 4 h (footpads of mice)	mean size (DLS) ([4]; 10 mg/ml in 150 mM citrate-phosphate buffer pH 6, 632 nm laser, 173° backscattering, method of cumulants, triplicate)	polydispersity (DLS) ([4]; 10 mg/ml in 150 mM citrate-phosphate buffer pH 6, over the temperature ramp)	release rate compared to GA ([2]; Scissor release profile over 3 days, GA profile from ref 15)	remained in the cartridge at the end of the three-day experiment ([2]; Scissor, 20 mg/ml into 10 mg/ml HA, end of 3 days)	plateau of release into the chamber after 2 days ([2]; Scissor, 1 ml of 20 mg/ml in 40 mg/ml mannitol into 10 mg/ml HA, after 2 days, Micro BCA assay)	K-PLP released into the chamber over the first 3 h ([2]; Scissor, 1 ml of 20 mg/ml in 40 mg/ml mannitol into 10 mg/ml HA, first 3 h, Micro BCA assay)	clinical score ([3]; 100 μl SC in 40 mg/ml mannitol, 4.5 mg/ml, days 4, 7 and 10, scores to day 25, 6 mice per group)	percentage of disease-free mice ([3]; 100 μl SC, days 4, 7 and 10, 6 mice per group)	weight decrease ([3]; 100 μl SC, days 4, 7 and 10, % weight change normalized to day 7, 6 mice per group)	weight loss from day 13 to day 17 (peak disease) ([3]; compared to 9-unit poly-lysine (p<0.0001) and PLP (p<0.01), two-way ANOVA)	cumulative clinical scores, day 0 to day 25 ([3]; one-way ANOVA, 6 mice per group)
poly-lysine	able to form visible aggregates															
glatiramer acetate [GA, reference compound]	forms large, visible aggregates	Formation of aggregates was observed immediately	any deviations from the control were not statistically significant; also recorded: did not significantly improve the clinical outcomes	Approximately 30%	did not significantly decrease over the course of the experiment											
NH2-KKKKKKKKKKK-PEG-PEG-PEG-PEG-HSLGKWLGHPDKF-OH [K-PLP]		visible aggregates were formed immediately				around 2 nm	less than 0.3	released at a similar rate as GA	approximately 20%	around 80%	approximately 20%	lowest clinical score	highest percentage of disease-free mice	least weight decrease	no significant weight loss	significant improvement over 9-unit poly-lysine, but not PLP

— paper PMC7848024, “Synthetic Cationic Autoantigen Mimics Glatiramer Acetate Persistence at the Site of Injection and Is Efficacious Against Experimental Autoimmune Encephalomyelitis” (Frontiers in Immunology, 2021)
